Measurements reported in the supplement of paper PMC10307832.

Experiments:
Assay in all cases: relative viability (nuclei count vs DMSO), 5 days (fraction); higher = more cells survive
Venetoclax + Tozasertib = compound: CC1(C)CCC(CN2CCN(c3ccc(C(=O)NS(=O)(=O)c4ccc(NCC5CCOCC5)c([N+](=O)[O-])c4)c(Oc4cnc5[nH]ccc5c4)c3)CC2)=C(c2ccc(Cl)cc2)C1 [Venetoclax] + Cc1cc(Nc2cc(N3CCN(C)CC3)nc(Sc3ccc(NC(=O)C4CC4)cc3)n2)n[nH]1 [Tozasertib] (partner 0.1 µM)
In short: (§1)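 Relative viability divides the nuclei count in treated wells by that in vehicle wells. Lung cancer cell lines were seeded in 1536-well plates, dosed by pin tool the next day, and fixed and stained after 5 days in one step with final 0.05% Triton X-100, 1% formaldehyde and 1 ug/ml Hoechst. Dosing was a single drug or a fixed anchor-drug dose plus five library-drug doses (not always all listed) in √10 steps, and values are medians of duplicate plates imaged at 4×.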

Selumetinib + Navitoclax = compound: Cn1cnc2c(F)c(Nc3ccc(Br)cc3Cl)c(C(=O)NOCCO)cc21 [Selumetinib] + CC1(C)CCC(c2ccc(Cl)cc2)=C(CN2CCN(c3ccc(C(=O)NS(=O)(=O)c4ccc(N[C@H](CCN5CCOCC5)CSc5ccccc5)c(S(=O)(=O)C(F)(F)F)c4)cc3)CC2)C1 [Navitoclax] (partner 0.5 µM)
In short: as §1

Selumetinib + Pemetrexed = compound: Cn1cnc2c(F)c(Nc3ccc(Br)cc3Cl)c(C(=O)NOCCO)cc21 [Selumetinib] + Nc1nc2[nH]cc(CCc3ccc(C(=O)N[C@@H](CCC(=O)O)C(=O)O)cc3)c2c(=O)[nH]1 [Pemetrexed] (partner 0.2 µM)
In short: as §1

Selumetinib + Crizotinib = compound: Cn1cnc2c(F)c(Nc3ccc(Br)cc3Cl)c(C(=O)NOCCO)cc21 [Selumetinib] + C[C@@H](Oc1cc(-c2cnn(C3CCNCC3)c2)cnc1N)c1c(Cl)ccc(F)c1Cl [Crizotinib] (partner 1 µM)
In short: as §1

Cell Line	relative viability (Venetoclax + Tozasertib; first compound 0.01 µM)	relative viability (Venetoclax + Tozasertib; first compound 0.03162 µM)	relative viability (Venetoclax + Tozasertib; first compound 0.1 µM)	relative viability (Venetoclax + Tozasertib; first compound 0.3162 µM)	relative viability (Venetoclax + Tozasertib; first compound 1 µM)	relative viability (Selumetinib + Navitoclax; first compound 0.02 µM)	relative viability (Selumetinib + Navitoclax; first compound 0.06325 µM)	relative viability (Selumetinib + Navitoclax; first compound 0.2 µM)	relative viability (Selumetinib + Navitoclax; first compound 0.6325 µM)	relative viability (Selumetinib + Pemetrexed; first compound 0.02 µM)	relative viability (Selumetinib + Pemetrexed; first compound 0.06325 µM)	relative viability (Selumetinib + Pemetrexed; first compound 0.2 µM)	relative viability (Selumetinib + Pemetrexed; first compound 0.6325 µM)	relative viability (Selumetinib + Crizotinib; first compound 0.02 µM)	relative viability (Selumetinib + Crizotinib; first compound 0.06325 µM)	relative viability (Selumetinib + Crizotinib; first compound 0.2 µM)	relative viability (Selumetinib + Crizotinib; first compound 0.6325 µM)
NCI-H1355	0.548	0.62	0.482	0.549	0.42	0.893	0.932	0.776	0.513	1.01	0.881	0.898	0.788	1.06	1.1	0.796	0.681
HARA	0.0626	0.109	0.0841	0.116	0.106	1.17	1.13	1.09	1.1	0.24	0.179	0.224	0.217	1.02	1.02	0.876	0.602
201T	0.826	0.957	0.945	0.91	0.941	1.17	1.14	1.17	1.15	0.358	0.328	0.323	0.308	1.01	0.99	0.93	0.902
NCI-H23	0.492	0.347	0.368	0.323	0.418	0.851	0.827	0.672	0.63	0.811	0.43	0.465	0.529	0.583	0.47	0.328	0.406
CAL-12T	0.302	0.346	0.28	0.222	0.19	1.28	1.36	0.986	0.921	1.28	1.25	1.1	0.969	0.621	0.573	0.704	0.597
NCI-H647	0.228	0.225	0.361	0.22	0.262	1.26	0.935	0.874	0.959	0.177	0.178	0.19	0.173	1.14	0.942	0.926	0.99
NCI-H1915	0.452	0.454	0.392	0.433	0.427	0.714	0.792	0.795	0.498	0.519	0.449	0.533	0.373	0.876	0.849	0.677	0.467
NCI-H2087	0.278	0.261	0.245	0.241	0.229	0.838	0.585	0.457	0.431	0.677	0.649	0.591	0.361	0.989	0.706	0.665	0.434
NCI-H2085	0.833	0.77	0.757	0.761	0.815	1.09	1.07	0.913	0.795	0.77	0.789	0.677	0.627	0.889	0.89	0.822	0.704
